# Assay results from PMC8413292, “Small-molecule polymerase inhibitor protects non-human primates from measles and reduces shedding” (Nature Communications, 2021).
# Values joined by “and” are separate entries in the source; they are usually repeats but may differ in a detail not shown here. Equal values may be shown once. Read-outs that look alike come from different tables or passages of the source.
# Experiments:
# [1] = tested on: MeV/NewJersey.USA/94/1 (genotype D6); experiment: PK and PD recapitulation ex vivo in MeV-infected human PBMCs, progeny virus titer (TCID50); assay type: cell-based, Measles virus in human PBMCs; conditions: for Virus titers: hPBMCs, individual repeats; for Mean, Transform of Virus Titer: n = 4
# Protocol: Human peripheral blood mononuclear cells (hPBMCs) were infected (MOI = 0.1 TCID50 units per cell) in a 24-well plate format with MeV/NewJersey.USA/94/1 (genotype D6) in the presence of ERDRP-0519 or DMSO (0.1%). […] Cells were collected 48 h after infection and virus was subsequently harvested after two freeze thaw cycles. Released virus titers were then determined by limited dilution method (TCID50) on Vero/hSLAM cells. Four biological repeats were used for each ex vivo PK recapitulation and three biological repeats were used for DMSO-treated hPBMCs.
# PK and PD recapitulation in human blood mononuclear cells
# To test whether viral replication in […]
# circumstances, we performed an in vitro recapitulation experiment. For this, we infected human PBMCs in a 24-well plate format with MeV/NewJersey.USA/94/1 (genotype D6) at a multiplicity of infection of 0.1 TCID 50 units per cell. To mimic the ERDRP-0519 serum concentration profile in vitro , we adjusted the drug concentrations in our PBMC cultures multiple times during the incubation period as shown by the colored areas in Fig. 1c (recapitulating a once per day treatment regimen, q.d.) and Fig. 1d (recapitulating a twice daily treatment regimen, b.i.d.) and summarized in Supplementary Table 3. The concentration changes were applied for a total of 48 h to the infected PBMC cultures (a total of two cycles of the q.d. regimen and four cycles of the b.i.d. regimen, assuming no drug accumulation during repeated treatment). As controls, infected PBMCs were incubated in the presence of vehicle only (0.1 % DMSO) or with a constant concentration of 1.5 µM of ERDRP-0519 over the whole period of 48 h post infection. Cells were collected 48 hours after infection and virus was subsequently harvested after two freeze thaw cycles. Released virus titers were then determined by limited dilution method (TCID 50) on Vero/hSLAM cells (Fig. 1e). Four biological repeats were used for each ex vivo PK recapitulation and three biological repeats were used for DMSO-treated hPBMCs.
# [2] = tested on: MV/FrankfurtMain.DEU/17.11 (genotype D8); experiment: Neutralizing antibody titers in serum; assay type: in vivo, squirrel monkeys (Saimiri sciureus); conditions: lower limit of detection = 10
# Protocol: White blood cell counts, viral load quantification in PBMCs, and quantification of neutralizing antibody titers were performed as follows: for white blood cell counts, blood was diluted 1:100 in 3% acetic acid and cells were counted using a Neubauer chamber. For viral load quantification in PBMCs, blood was centrifuged at 3000 rpm for 15 min and serum was frozen at −20 °C until further use. Red blood cell lysis was performed and the remaining PBMCs were counted using a Neubauer chamber. Viral titers in PBMCs were quantified in quadruplicates using limited dilution method and calculated as TCID50/10^6 PBMCs. Neutralizing antibody titers were quantified by incubating MeV with 2-fold serial dilutions of the respective serum for 20 min at room temperature in quadruplicates. Vero/hSLAM cells were added and incubated for 3 days at 37 °C. Neutralizing antibody titers are expressed as the reciprocal of the highest serum dilution showing no signs of infection. For virus titration from throat swabs, swabs were placed in 150 μl DMEM with 3% penicillin/streptomycin and the titer was quantified by limited dilution method.
# [3] = Body weight of squirrel monkeys during the efficacy study; assay type: in vivo, squirrel monkeys (Saimiri sciureus); conditions: all animals throughout the study
# Protocol: (§1) All animal experiments were carried out in compliance with the regulations of German animal protection laws and authorized by the Regierungspräsidium Darmstadt, Germany (Dezernat V54 – Veterinärwesen und Verbraucherschutz, Hilpertstrasse 31, 64295 Darmstadt). Adult male and female squirrel monkeys (Saimiri sciureus) were obtained from BioPRIM, 31450 Baziege, or CNRS 0846 Primatologie, 13790 Rousset, France. Each experimental group was housed in a separate room, and animals of the same sex were caged together within the respective groups. For the single-dose pharmacokinetic experiment, animals were anesthetized, and the drug was given through a stomach tube at a concentration of 50 mg/kg bodyweight. Blood samples were collected after 15, 30, and 60 min, and 2, 3, 6, and 24 h. For efficacy assessment, groups of 6 animals were left untreated or treated with 50 mg/kg of ERDRP-0519 twice daily for two weeks, starting either 12 h before or 3 or 7 days after intranasal infection with 10^6 TCID50 of MV/FrankfurtMain.DEU/17.11. Clinical signs, rectal temperature, and weight were recorded daily, and throat swabs and blood samples were collected before infection and twice weekly thereafter. On day 21 post-infection, the animals were euthanized, necropsied, and samples were collected for histological analysis.
# [4] = tested on: canine distemper virus (CDV); conditions: lethal CDV-ferret model; cited from earlier work
# [5] = Single-dose oral pharmacokinetic study in squirrel monkeys (LC/MS/MS serum concentrations); assay type: in vivo, squirrel monkeys (Saimiri sciureus); conditions: for tmax: 50 mg/kg oral (intragastric) single dose
# Protocol: as §1
# Drug concentrations were determined using an internal standard and a reversed phase isocratic HPLC method with positive ion electrospray ionization (ESI) mass spectrometry detection (LC/MS/MS) on an AB-SCIEX API 5500 MS/MS instrument (5 μl injection volume). Pharmacokinetic parameters were estimated using WinNonlin 5.3 (Pharsight).
# [6] = both sexes, monkey, serum, squirrel monkeys, 50 mg/kg oral single dose, n = 3
smiles,measurement,setting,value
Cn1nc(C(F)(F)F)cc1C(=O)Nc1ccc(S(=O)(=O)N2CCCC[C@H]2CCN2CCOCC2)cc1 [ERDRP-0519],reduction in progeny virus titer,"[1]; continuous exposure of MeV-infected hPBMCs to 1.5 µM, 48 h",greater than three orders of magnitude reduction
same,Virus titers,"[1]; 48 h, b.i.d. 50 mg/kg simulated profile",1.80E+02 TCID50/10^6 PBMCs and 3.21E+02 TCID50/10^6 PBMCs and 4.27E+02 TCID50/10^6 PBMCs and 7.60E+01 TCID50/10^6 PBMCs
same,Virus titers,"[1]; 48 h, constant 1.5 μM",7.60E+01 TCID50/10^6 PBMCs and 5.70E+01 TCID50/10^6 PBMCs and 4.27E+01 TCID50/10^6 PBMCs
same,Virus titers,"[1]; 48 h, q.d. 50 mg/kg simulated profile",1.80E+03 TCID50/10^6 PBMCs and 2.40E+03 TCID50/10^6 PBMCs and 3.21E+03 TCID50/10^6 PBMCs and 1.35E+03 TCID50/10^6 PBMCs
same,"Mean, Transform of Virus Titer",[1]; once daily recapitulation,3.318
same,"Mean Diff., Transform of Virus Titer",[1]; once daily vs. trough,1.531
same,"Mean Diff., Transform of Virus Titer",[1]; once daily vs. twice daily,0.9998
same,"Mean Diff., Transform of Virus Titer",[1]; once daily vs. vehicle,-1.854
same,progeny MeV titers versus untreated controls,"[1]; q.d. and b.i.d. regimen recapitulated ex vivo in hPBMCs, 48 h",significantly (p < 0.0001) lower than in untreated controls
same,"Mean, Transform of Virus Titer",[1]; trough (constant 1.5 µM),1.787
same,"Mean Diff., Transform of Virus Titer",[1]; trough vs. vehicle,-3.385
same,"Mean, Transform of Virus Titer",[1]; twice daily recapitulation,2.318
same,"Mean Diff., Transform of Virus Titer",[1]; twice daily vs. trough,0.5313
same,"Mean Diff., Transform of Virus Titer",[1]; twice daily vs. vehicle,-2.853
same,"neutralizing antibody titer, dilution factor [1/dilution]","[2]; prophylactic group, day 0, individual animals",10 1/dilution
same,"neutralizing antibody titer, dilution factor [1/dilution]","[2]; prophylactic group, day 3, individual animals",10 1/dilution
same,"neutralizing antibody titer, dilution factor [1/dilution]","[2]; prophylactic group, day 7, individual animals",10 1/dilution
same,"neutralizing antibody titer, dilution factor [1/dilution]","[2]; prophylactic group, day 10, individual animals",10 1/dilution
same,"neutralizing antibody titer, dilution factor [1/dilution]","[2]; prophylactic group, day 14, individual animals",10 1/dilution (3×) and 80 1/dilution and 15 1/dilution and 30 1/dilution
same,"neutralizing antibody titer, dilution factor [1/dilution]","[2]; prophylactic group, day 17, individual animals",160 1/dilution and 240 1/dilution and 10 1/dilution (3×) and 17.5 1/dilution
same,"neutralizing antibody titer, dilution factor [1/dilution]","[2]; prophylactic group, day 21, individual animals",640 1/dilution and 200 1/dilution and 120 1/dilution and 10 1/dilution (2×) and 35 1/dilution
same,"neutralizing antibody titer, dilution factor [1/dilution]","[2]; therapeutic (d3) group, day 0, individual animals",10 1/dilution
same,"neutralizing antibody titer, dilution factor [1/dilution]","[2]; therapeutic (d3) group, day 3, individual animals",10 1/dilution
same,"neutralizing antibody titer, dilution factor [1/dilution]","[2]; therapeutic (d3) group, day 7, individual animals",10 1/dilution
same,"neutralizing antibody titer, dilution factor [1/dilution]","[2]; therapeutic (d3) group, day 10, individual animals",25 1/dilution and 10 1/dilution (2×) and 12.5 1/dilution
same,"neutralizing antibody titer, dilution factor [1/dilution]","[2]; therapeutic (d3) group, day 14, individual animals",800 1/dilution and 35 1/dilution and 10 1/dilution and 280 1/dilution and 400 1/dilution and 70 1/dilution
same,"neutralizing antibody titer, dilution factor [1/dilution]","[2]; therapeutic (d3) group, day 17, individual animals",200 1/dilution (2×) and 30 1/dilution and 240 1/dilution and 80 1/dilution
same,"neutralizing antibody titer, dilution factor [1/dilution]","[2]; therapeutic (d3) group, day 21, individual animals",320 1/dilution (2×) and 70 1/dilution and 140 1/dilution and 120 1/dilution
same,"neutralizing antibody titer, dilution factor [1/dilution]","[2]; therapeutic (d7) group, day 0, individual animals",10 1/dilution
same,"neutralizing antibody titer, dilution factor [1/dilution]","[2]; therapeutic (d7) group, day 3, individual animals",10 1/dilution (5×) and 12.5 1/dilution
same,"neutralizing antibody titer, dilution factor [1/dilution]","[2]; therapeutic (d7) group, day 7, individual animals",10 1/dilution (5×) and 15 1/dilution
same,"neutralizing antibody titer, dilution factor [1/dilution]","[2]; therapeutic (d7) group, day 10, individual animals",20 1/dilution and 12.5 1/dilution
same,Body weight changes,[3],negligible
same,survival after post-exposure therapeutic dosing,[4],complete survival of all treated animals
same,concentration at 2 h,"[5]; 50 mg/kg oral, 0.25 h post-application, individual animals, read-out: ERDRP-0519 serum conc.",0.6722 µM and 1.545 µM and 3.833 µM
same,concentration at 2 h,"[5]; 50 mg/kg oral, 0.5 h post-application, individual animals, read-out: ERDRP-0519 serum conc.",0.6911 µM and 0.9177 µM and 3.493 µM
same,concentration at 2 h,"[5]; 50 mg/kg oral, 1 h post-application, individual animals, read-out: ERDRP-0519 serum conc.",1.158 µM and 2.002 µM and 3.607 µM
same,concentration at 2 h,"[5]; 50 mg/kg oral, 2 h post-application, individual animals, read-out: ERDRP-0519 serum conc.",3.078 µM and 3.04 µM
same,concentration at 2 h,"[5]; 50 mg/kg oral, 3 h post-application, individual animals, read-out: ERDRP-0519 serum conc.",2.889 µM and 2.172 µM
same,concentration at 2 h,"[5]; 50 mg/kg oral, 6 h post-application, individual animals, read-out: ERDRP-0519 serum conc.",1.2595 µM and 0.9914 µM
same,concentration at 2 h,"[5]; 50 mg/kg oral, 24 h post-application, individual animals, read-out: ERDRP-0519 serum conc.",0.03909 µM and 0.098 µM and 0.07799 µM
same,concentration at 0 h,"[5]; both sexes, monkey, serum, oral, 50 mg/kg, 50 mg/kg oral, 0 h post-application, individual animals, read-out: ERDRP-0519 serum conc.",0 µM
same,concentration at 2 h,"[5]; both sexes, monkey, serum, oral, 50 mg/kg, 50 mg/kg oral, 2 h post-application, individual animals, read-out: ERDRP-0519 serum conc.",2.49 µM
same,concentration at 3 h,"[5]; both sexes, monkey, serum, oral, 50 mg/kg, 50 mg/kg oral, 3 h post-application, individual animals, read-out: ERDRP-0519 serum conc.",2.51 µM
same,concentration at 6 h,"[5]; both sexes, monkey, serum, oral, 50 mg/kg, 50 mg/kg oral, 6 h post-application, individual animals, read-out: ERDRP-0519 serum conc.",1.34 µM
same,tmax,"[5]; both sexes, monkey, serum, po, 50 mg/kg, squirrel monkeys, n = 3, read-out: tmax",1.8 h
same,AUC(0-inf),[5]; [6],24.4 µM·h
same,Cmax,[5]; [6],3.27 µM
same,half-life,"[5]; both sexes, monkey, serum, squirrel monkeys, 50 mg/kg oral single dose, n = 3, read-out: t1/2 terminal elimination half-life (converted)",4.2 h
same,tmax,"[5]; squirrel monkeys, n = 3, 50 mg/kg",~ 2 h
